Reference: US7935530B2, “Polyamides with tail structures capable of binding DNA” (California Institute of Technology, priority 2006, dated 2011)
“And” between values parts separate entries of the source, which are not always exact repeats. Equal values may be shown once. “Also recorded” adds a separate entry of the source. Read-outs that look alike come from different tables or passages of the source.

Legend:
[1] = system: PKFB3; test: HIF-1 induced gene expression, U251 cells (Table 3), PKFB3; assay type: cell-based, human; settings: HREs gcggGACGTGacgc, gacgCACGTGggca; E 100 nM, 11.1 and 11.3 1 μM
Protocol: (§1) U251 cells were plated in 24-well plates at a density of 20−30×10^3 cells per well (40−60×10^3 cells/ml) in RPMI (ATCC) supplemented with 5% FBS (Irvine Scientific). After 24 hours, polyamides were added to the adhered cells in cell media solutions at the appropriate concentration and incubated with the cells for 48 hours. […] When appropriate, echinomycin was added two hours prior to DFO stimulation. Isolation of RNA and subsequent cDNA synthesis were as previously described (19). When appropriate, HIF-1α siRNA (HIF-1α validated stealth duplex, Invitrogen) or mismatch control siRNA with similar GC content (Invitrogen) was transfected 48 hours prior to RNA isolation. Transfection of siRNA was achieved using Lipofectamine 2000 (Invitrogen) according to manufacturer's protocols. Quantitative real-time RT-PCR was performed using SYBR Green PCR Master Mix (Applied Biosystems) on an ABI 7300 instrument. Target gene mRNA was measured relative to β-glucuronidase as an endogenous control. Primer employed were: VEGF, L 5′[…]-3′ (SEQ ID NO:22), R 5′-GGGTACTCC TGGAAGATGTCC-3′ (SEQ ID NO:23); β-glucuronidase, L 5′-[…]-3′ (SEQ ID NO:24), R 5′-[…]-3′ (SEQ ID NO:25); FLT1, L 5′-[…]-3′ (SEQ ID NO:26), R 5′-[…]-3′ (SEQ ID NO:27).

[2] = system: PGK1; test: HIF-1 induced gene expression, U251 cells (Table 3), PGK1; assay type: cell-based, human; settings: HREs gtgaGACGTGcggc, tgccGACGTGcgct, E 100 nM
Protocol: as §1

[3] = system: 5′-ATACGT-3′ sequence within the HRE of the VEGF promoter; test: Quantitative DNase I footprint titration on pGL2-VEGF-Luc PCR product, VEGF HRE; assay type: binding; settings: for Ka at the VEGF HRE: Example 2, pGL2-VEGF-Luc
Protocol: Quantitative DNase I footprint titration experiments were used to determine polyamide-binding affinities (Ka) to the 5′-ATACGT-3′ sequence within the HRE of the VEGF promoter. These experiments were performed using the 5′-^32P-labeled 197 bp PCR amplification product of the plasmid pGL2-VEGF-Luc isolated by non-denaturing gel electrophoresis (16, 21). Quantitative DNase I footprint titration experiments were conducted as reported previously (21).
(§2) Quantitative DNase I footprint titration experiments were used to measure the binding affinities of polyamides 11.1, 11.2, 11.3, and echinomycin on 5′ ^32P-labeled fragments of pGL2-VEGF-Luc and pCSJ-FLT1 containing promoter sequences containing the HREs of VEGF and FLT1, respectively. Quantitative DNase I footprint titration experiments were conducted as reported previously (56).

[4] = system: FLT1 HRE; test: Quantitative DNase I footprint titration on pCSJ-FLT1, FLT1 HRE; assay type: binding
Protocol: as §2

[5] = system: HIF-1α occupancy at the VEGF HRE; test: Chromatin immunoprecipitation with anti-HIF1α, U251 cells, VEGF HRE; assay type: cell-based, human; settings: DFO-induced, polyamides 1 μM, echinomycin 100 nM
Protocol: Cells were plated on 15 cm diameter culture dishes and left to attach overnight. Polyamides were incubated with the cells for 48 h, and the cells were incubated for an additional 16 h after the addition of DFO to a final concentration of 300 μM. Cells were then treated with 1% formaldehyde for 10 min. Chromatin was isolated and sheared. HIF-1 antibodies (Novus Biologicals) were used to immunoprecipitate HIF-1 bound DNA fragments. After crosslink reversal, PCRs using primers flanking the HRE of VEGF were used to assess enrichment of bound fragments as compared to mock-precipitated (no antibody) controls. PCRs were monitored either using SYBR Green PCR Master Mix (Applied Biosystems) on an ABI 7300 instrument, or directly visualized using gel electrophoresis.
U251 cells were plated in 15 cm diameter plates and left to attach overnight. Media, time course, DFO, polyamide, echinomycin, and siRNA treatments were as described above. After the 16 hour DFO treatment, cells were treated with 1% formaldehyde for 10 minutes. Chromatin was isolated and sheared. HIF-1α antibodies (Novus Biologicals) were used to immunoprecipitate HIF-1-bound DNA fragments. After crosslink reversal, PCRs using primers targeted to the regions of interest were used to assess enrichment of bound fragments as compared to mock-precipitated (no antibody) controls. PCRs were monitored either using SYBR Green PCR Master Mix (Applied Biosystems) on an ABI 7300 instrument, or directly visualized using gel electrophoresis. The following primers were used: VEGF, L 5′-CCTTTGGGTTTTGCCAGA-3′ (SEQ ID NO:28), R 5′-CCAAGTTTGTGGAGCTGA-3′ (SEQ ID NO:29); CA9, L 5′-AAAAGGGCGCTCTGTGAGT-3′ (SEQ ID NO:30), R 5′-GCTGACTGTGGGGTGTCC-3′ (SEQ ID NO:31); PGK1, L 5′-CCCCTAAGTCGGGAAGGTT-3′ (SEQ ID NO:32), R 5′-[…]-3′ (SEQ ID NO:33).

[6] = system: BNIP3; test: HIF-1 induced gene expression, U251 cells (Table 3), BNIP3; assay type: cell-based, human; settings: HRE gccgCACGTGccac, E 100 nM
Protocol: as §1

[7] = system: EGLN3; test: HIF-1 induced gene expression, U251 cells (Table 3), EGLN3; assay type: cell-based, human; settings: HRE gggcTACGTGcaga, E 100 nM
Protocol: as §1

[8] = system: TFRC; test: HIF-1 induced gene expression, U251 cells (Table 3), TFRC; assay type: cell-based, human; settings: HRE agcgTACGTGcctc; R siRNA, E 100 nM, 11.1 and 11.3 1 μM; unit not given
Protocol: as §1

[9] = system: EGLN1; test: HIF-1 induced gene expression, U251 cells (Table 3), EGLN1; assay type: cell-based, human; settings: HRE ggtgTACGTGcaga, E 100 nM
Protocol: as §1

[10] = system: CA9; test: HIF-1 induced gene expression, U251 cells (Table 3), CA9; assay type: cell-based, human; settings: HRE gctgTACGTGcatt; E 100 nM, 11.1 and 11.3 1 μM
Protocol: as §1

[11] = system: FLT1 mRNA; test: DFO-induced FLT1 mRNA by quantitative real-time RT-PCR, U251 cells; assay type: cell-based, human; settings: for HIF-1 induced genes affected: FLT1: HRE gaacAACGTGgaat, E 100 nM, 11.1 and 11.3 1 μM, U251; for Effect on DFO-induced FLT1 mRNA (in words): U251 cells, polyamides 1 μM, echinomycin 100 nM
Protocol: as §1

[12] = system: 11 HIF-1 induced genes; test: Quantitative real-time RT-PCR confirmation on the set of 11 HIF-1 induced genes, U251 cells; assay type: cell-based, human; settings: E 100 nM, polyamides 1 μM
From the text: Quantitative real-time RT-PCR was used to confirm the effects of polyamides 11.1, 11.3, echinomycin, and siRNA treatments on these 11 genes. […] Chromatin immunoprecipitation was used to measure HIF-1 occupancy at the HREs of VEGF and carbonic anhydrase IX (CA9), which were both affected by polyamide 11.1, and PGK1, which was unaffected (FIG. 17). HIF-1α occupancy at the VEGF HRE was decreased by HIF-1α siRNA, echinomycin, and polyamide 11.1, but less so by treatment with HRE-mismatch polyamide 11.3.
as §1

## CN(CCCNC(=O)c1cccc(C(=O)O)c1)CCCNC(=O)c1cc(NC(=O)c2cc(NC(=O)c3nc(NC(=O)c4cc(NC(=O)[C@H](N)CCNC(=O)c5nc(NC(=O)c6cc(NC(=O)c7cc(NC(=O)c8sccc8Cl)cn7C)cn6C)cn5C)cn4C)cn3C)cn2C)cn1C [Polyamide 11]
[1]
  HIF-1 induced genes affected: PKFB3: 1.0
[2]; 11.1 and 11.3 1 μM
  HIF-1 induced genes affected: PGK1: -1.2
[3]; mean of three DNase I footprint titration experiments, standard deviations in parentheses, 197 bp PCR product of pGL2-VEGF-Luc
  Binding affinities (M-1), 5′-TACGTG-3′ (equilibrium association constants): 2.6 (±0.4) × 10^10 M-1
[4]; listed as 11.1
  Ka at the FLT1 HRE: 2.7 (+0.2)×10^9 M^−1 and 2.7 (±0.2)×10^9 M^−1
[5]
  HIF-1α occupancy at the VEGF HRE (chromatin immunoprecipitation): decreased occupancy of HIF-1α at the VEGF HRE; also recorded: inhibited
[5]; listed as 11.1
  HIF-1α occupancy at the VEGF HRE (chromatin immunoprecipitation): decreased
[6]; 11.1 and 11.3 1 μM
  HIF-1 induced genes affected: BNIP3: 1.3
[7]; 11.1 and 11.3 1 μM
  HIF-1 induced genes affected: EGLN3: 1.0
[8]
  HIF-1 induced genes affected: TFRC: 1.1
[9]; 11.1 and 11.3 1 μM
  HIF-1 induced genes affected: EGLN1: 1.1
[10]
  HIF-1 induced genes affected: CA9: -2.1
[11]
  HIF-1 induced genes affected: FLT1: -2.0
[11]; listed as 11.1
  Effect on DFO-induced FLT1 mRNA (in words): inhibited FLT1 expression; also recorded: decrease FLT1 mRNA levels
[12]
  Genes of the set of 11 HIF-1 induced genes affected (quantitative real-time RT-PCR): 4

## CN(CCCNC(=O)c1cccc(C(=O)O)c1)CCCNC(=O)c1cc(NC(=O)c2cc(NC(=O)c3cc(NC(=O)c4nc(NC(=O)[C@H](N)CCNC(=O)c5cc(NC(=O)c6cc(NC(=O)c7nc(NC(=O)c8nccn8C)cn7C)cn6C)cn5C)cn4C)cn3C)cn2C)cn1C [Polyamide 23]
[1]
  HIF-1 induced genes affected: PKFB3: 1.0
[2]; 11.1 and 11.3 1 μM
  HIF-1 induced genes affected: PGK1: 1.0
[3]
  Ka at the VEGF HRE: 8.0 (±1.0)×10^8 M^−1
[4]
  Ka at the FLT1 HRE: does not bind the FLT1 HRE with a measurable Ka
[5]
  HIF-1α occupancy at the VEGF HRE (chromatin immunoprecipitation): more modest effect compared with that of its match congener 11
[5]; listed as 11.3
  HIF-1α occupancy at the VEGF HRE (chromatin immunoprecipitation): less so; also recorded: only modestly affected
[6]; 11.1 and 11.3 1 μM
  HIF-1 induced genes affected: BNIP3: 1.0
[7]; 11.1 and 11.3 1 μM
  HIF-1 induced genes affected: EGLN3: −1.1
[8]
  HIF-1 induced genes affected: TFRC: 1.4
[9]; 11.1 and 11.3 1 μM
  HIF-1 induced genes affected: EGLN1: 1.0
[10]
  HIF-1 induced genes affected: CA9: -1.1
[11]
  HIF-1 induced genes affected: FLT1: -1.1
[11]; listed as 11.3
  Effect on DFO-induced FLT1 mRNA (in words): minimal effect; also recorded: minimal or no effect
[12]
  Genes of the set of 11 HIF-1 induced genes affected (quantitative real-time RT-PCR): little effect on the expression of all the others

## CS[C@H]1SC[C@H]2C(=O)N(C)[C@@H](C(C)C)C(=O)OC[C@@H](NC(=O)c3cnc4ccccc4n3)C(=O)N[C@@H](C)C(=O)N(C)[C@@H]1C(=O)N(C)[C@@H](C(C)C)C(=O)OC[C@@H](NC(=O)c1cnc3ccccc3n1)C(=O)N[C@@H](C)C(=O)N2C [echinomycin, reference compound]
[1]
  HIF-1 induced genes affected: PKFB3: −82.0
[2]
  HIF-1 induced genes affected: PGK1: -3.3
[3]
  Ka at the VEGF HRE: 8.4 (±2.1)×10^6 M^−1
[4]
  Ka at the FLT1 HRE: 2.9 (±0.7)×10^7 M^−1
[5]
  HIF-1α occupancy at the VEGF HRE (chromatin immunoprecipitation): decreased
[6]
  HIF-1 induced genes affected: BNIP3: −6.0
[7]
  HIF-1 induced genes affected: EGLN3: −33.6
[8]
  HIF-1 induced genes affected: TFRC: −2.3
[9]
  HIF-1 induced genes affected: EGLN1: −19.8
[10]
  HIF-1 induced genes affected: CA9: -9.4
[11]
  HIF-1 induced genes affected: FLT1: -4.7
  Effect on DFO-induced FLT1 mRNA (in words): decrease FLT1 mRNA levels
[11]; listed as Echinomycin
  Effect on DFO-induced FLT1 mRNA (in words): reduced FLT1 expression to below that of the non-induced control
[12]
  Genes of the set of 11 HIF-1 induced genes affected (quantitative real-time RT-PCR): reduced expression of all genes in this set
